Laboratory results as given in patent publication EP1709956A1, “Hair treatment composition comprising betains” (Henkel Kommanditgesellschaft auf Aktien, priority 2001, dated 2002).

Tested on: humane Haarfollikel
Assay: in vitro model of isolated human scalp hair follicles (Philpott): hair shaft elongation in organ culture
Format: cell-based
Conditions: 9 days in culture
Text: Auf diese Publikation wird ausdrücklich Bezug genommen. Gemäß dieser Veröffentlichung wurde wie folgt verfahren: a. Isolation humaner Kopfhauthaarfollikel Es wird okzipitale, humane Vollhaut isoliert. b. Aufreinigung der isolierten humanen Kopfhautfollikel Die herausgezupften Haarfollikel werden in ein frisches Isolationsmedium überführt, darin gesammelt und anschließend mehrfach unter sterilen Bedingungen mit frischem Medium gewaschen. Je drei Haarfollikel werden randomisiert in ein Well einer 24-Well Platte mit 500µl kompletten Mediums (verwendet wird Williams E Medium, supplementiert mit 2 mM L-Glutamin, 10 µg/ml Hydrokortison, 10 µg/ml Insulin, 10 µg/ml Penizillin und 10 µg/ml Streptomycin). Vor der Zugabe der zu testenden Substanzen wurden die Haarfollikel für 30 Minuten im Inkubator präinkubiert. c. Testung der Substanzen Es werden Carnitin, Carnitintartrat sowie Minoxidil als Vergleichssubstanz mit bekannter Wirkung geprüft. Die Prüfkonzentration für Carnitin und Carnitiontartrat beträgt jeweils 50 µmol/1. Die Haarfollikel werden für 9 Tage in Kultur gehalten. Das Medium inklusive der Testsubstanzen wird täglich gewechselt. Die Länge der jeweiligen Haarschäfte wird am 9. Tag mit Hilfe eines Meßokulares am Dissektionsmikroskop gemessen und dokumentiert. Die Prüfung von Minoxidil ist eine Positivkontrolle, weil Minoxidil in der Literatur bereits als wachstumsstimulierend für humane Haarfollikel beschrieben wird. […] Hierzu sind folgende Änderungen gegenüber der Prüfung des Carnitines und des Carnitintartrates notwendig: Testkonzentration des Minoxidil 10^-5 mol/l in 1 % Ethanol, Ersatz des Streptomycines durch 10µg/ml Ciprofloxacin. Zur statistischen Auswertung der Ergebnisse wird die Länge der Haarschäfte in % der Gesamtdurchschnittslänge aller Haarfollikel am Tage 0 berechnet. Alle Haarfollikel einer Gruppe werden gepoolt und der Mittelwert sowie die Standardabweichung statistisch nach üblichen Methoden berechnet. Signifikante Unterschiede werden mit dem Student T-Test berechnet. d.

[1] = 50 µmol/l, medium changed daily, shaft length measured on day 9, in % of mean length of all follicles on day 0

Compound | Längenwachstum des Haarschaftes in % (positive control, 10^-5 mol/l in 1 % Ethanol, streptomycin replaced by 10 µg/ml Ciprofloxacin, measured on day 9) | Längenwachstum des Haarschaftes in % [1]
Nc1cc(N2CCCCC2)nc(N)[n+]1[O-] [Minoxidil, reference compound] | 34% | –
C[N+](C)(C)CC(O)CC(=O)[O-] (stereo not drawn) [Carnitintartrat] | – | 87%
C[N+](C)(C)CC(O)CC(=O)[O-] (stereo not drawn) [Carnitin] | – | 67%
